Test results as given in patent US20050090529A1, “3,5 Disubstituted indazole compounds with nitrogen-bearing 5-membered heterocycles, pharmaceutical compositions, and methods for mediating or inhibiting cell proliferation” (PFIZER INC, priority 2003, published 2005).

Each compound was assayed on Cyclin-dependent kinase (assay: Cyclin-dependent kinase inhibition, % inhibition at 10 nM (library Examples 99-270)). Settings: 10 nM compound.
Assay type: biochemical
Protocol: Cyclin-dependent kinase activity was measured by quantifying the enzyme-catalyzed, time-dependent incorporation of radioactive phosphate from [^32P]ATP or [^33P]ATP into a protein substrate. Unless noted otherwise, assays were performed in 96-well plates in a total volume of 50 μL, in the presence of 10 mM HEPES (N-[2-hydroxyethyl]piperazine-N′-[2-ethanesulfonic acid]) (pH 7.4), 10 mM MgCl2, 25 μM adenosine triphosphate (ATP), 1 mg/mL ovalbumin, 5 μg/mL leupeptin, 1 mM dithiothreitol, 10 mM beta-glycerophosphate, 0.1 mM sodium vanadate, 1 mM sodium fluoride, 2.5 mM ethylene glycol-bis(β-aminoethyl ethKer)-N,N,N′N′-tetraacetic acid (EGTA), 2% (v/v) dimethylsulfoxide, and 0.03-0.4 μCi [^32/33P]ATP per reaction. Reactions were initiated with enzyme, incubated at 30° C., and terminated after 20 minutes by the addition of ethylenediaminetetraacetic acid (EDTA) to 250 mM. The phosphorylated substrate was then captured on a nitrocellulose or phosphocellulose membrane using a 96-well filtration manifold, and unincorporated radioactivity was removed by repeated washing with 0.85% phosphoric acid. Radioactivity was quantified by exposing the dried membranes to a phosphorimager.
Results of assays performed on compounds, which include the specific examples described above are provided in Examples 99-274 above, and in Table 1 below. Unless indicated otherwise in a particular entry, the units and assays used are as indicated in the applicable column of the table.

In order of rising “% Inhib @ 10 nM” value:
1. CCNCc1cncc(-c2ccc3[nH]nc(-c4ncc(C(=O)N5CCN(CC(=O)N6CCOCC6)CC5)[nH]4)c3c2)c1C [Example 127, ethyl({4-methyl-5-[3-(5-{[4-(2-morpholin-4-yl-2-oxoethyl)piperazin-1-yl]carbonyl}-1H-imidazol-2-yl)-1H-indazol-5-yl]pyridin-3-yl}methyl)amine]  26%
2. CCNCc1cncc(-c2ccc3[nH]nc(-c4ncc(C(=O)NCCCN5CCCC5=O)[nH]4)c3c2)c1C [Example 130]  28%
3. CCNCc1cncc(-c2ccc3[nH]nc(-c4ncc(C(=O)NCCc5nnc(-c6cnccn6)o5)[nH]4)c3c2)c1C [Example 264]  29%
4. CCNCc1cncc(-c2ccc3[nH]nc(-c4ncc(C(=O)N5CCCN(Cc6ccc(F)cc6)CC5)[nH]4)c3c2)c1C [Example 222, ethyl({5-[3-(5-{[4-(4-fluorobenzyl)-1,4-diazxepan-1-yl]carbonyl}1H-imidazol-2-yl)-1H-indazol-5-yl]-4-methylpyridin-3-yl}methyl)amine]  30%
5. CCNCc1cncc(-c2ccc3[nH]nc(-c4ncc(C(=O)N5CCCC(Cc6ncccn6)CC5)[nH]4)c3c2)c1C (stereo not shown) [Example 261, ethyl({4-methyl-5-[3-(5-{[4-(pyrimidin-2-ylmethyl)azepan-1-yl]carbonyl}-1H-imidazol-2-yl)-1H-indazol-5-yl]pyridin-3-yl}methyl)amine]  30%
6. CCNCc1cncc(-c2ccc3[nH]nc(-c4ncc(C(=O)N5CCCCC5Cc5ccccc5)[nH]4)c3c2)c1C (stereo not shown) [Example 233, {[5-(3-{5-[(2-benzylpipendin-1-yl)carbonyl]-1H-imidazal-2-yl)-1H-indazol-5-yl)-4-methylpyridin-3-yl]methyl}ethylamine]  32%
7. CCNCc1cncc(-c2ccc3[nH]nc(-c4ncc(C(=O)N(C)C5CCN(C)C5)[nH]4)c3c2)c1C (stereo not shown) [Example 137, 2-(5-{5-[(ethylamino)methyl]-4-methylpyridin-3-yl}-1H-indazol-3-yl)-N-methyl-N-(1-methylpyrrolidin-3-yl)-1H-imidazole-5-carboxamide]  37%
8. CCNCc1cncc(-c2ccc3[nH]nc(-c4ncc(C(=O)N(C)CCc5ccc(OC)c(OC)c5)[nH]4)c3c2)c1C [Example 165, N-[2-(3,4-dimethoxyphenyl)ethyl]-2-(5-{5-[(ethylamino)methyl]-4-methylpyridin-3-yl}-1H-indazol-3-yl)-N-methyl-1H-imidazole-5-carboxamide]  37%
9. CCNCc1cncc(-c2ccc3[nH]nc(-c4ncc(C(=O)N5CCC(c6nnc(CN(C)C)o6)CC5)[nH]4)c3c2)c1C [Example 257]  37%
10. CCNCc1cncc(-c2ccc3[nH]nc(-c4ncc(C(=O)N5CCCN(C)CC5)[nH]4)c3c2)c1C [Example 119, ethyl{(4-methyl-5-(3-{5-[(4-methyl-1,4-diazepan-1-yl)carbonyl]-1H-imidazol-2-yl}-1H-indazol-5-yl)pyridin-3-yl]methyl}amine]  38%
11. CCNCc1cncc(-c2ccc3[nH]nc(-c4ncc(C(=O)NCc5nnc(-c6ccccc6OC)o5)[nH]4)c3c2)c1C [Example 255, 2-(5-{5-[(ethylamino)methyl]-4-methylpyridin-3-yl}-1H-indazol-3-yl)-N-{[5-(2-methoxyphenyl)-1,3,4-oxadiazol-2-yl]methyl}-1H-imidazole-5-carboxamide]  40%
12. CCNCc1cncc(-c2ccc3[nH]nc(-c4ncc(C(=O)N5CCN(CCC#N)CC5)[nH]4)c3c2)c1C [Example 214, 3-(4-{[2-(5-{5-[(ethylamino)methyl]-4-methylpyridin-3-yl}-1H-indazol-3-yl)-1H-imidazol-5-yl]carbonyl}piperazin-1-yl)propanenitrile]  40%
13. CCNCc1cncc(-c2ccc3[nH]nc(-c4ncc(C(=O)N5CCC(c6ccnc(NCC)n6)CC5)[nH]4)c3c2)c1C [Example 252, N-ethyl-4-(1-{[2-(5-{5-[(ethylamino)methyl]-4-methylpyridin-3-yl}-1H-indazol-3-yl)-1H-imidazol-5-yl]carbonyl}piperidin-4-yl)pyrimidin-2-amine]  41%
14. CCNCc1cncc(-c2ccc3[nH]nc(-c4ncc(C(=O)NCCOCCO)[nH]4)c3c2)c1C [Example 104]  54%
15. CCNCc1cncc(-c2ccc3[nH]nc(-c4ncc(C(=O)N5CCN(Cc6ccc(OC)cc6)CC5)[nH]4)c3c2)c1C [Example 181, ethyl({5-[3-(5-{[4-(4-methoxybenzyl)piperazin-1-yl]carbonyl}1H-imidazol-2-yl)-1H-indazol-5-yl]-4-methylpyridin-3-yl}methyl)amine]  57%
16. CCNCc1cncc(-c2ccc3[nH]nc(-c4ncc(C(=O)NC5CCOCC5)[nH]4)c3c2)c1C [Example 211, 2-(5-{5-[(ethylamino)methyl]-4-methylpyridin-3-yl}-1H-indazol-3-yl)-N-(tetrahydro-2H-pyran-4-yl)-1H-imidazole-5-carboxamide]  57%
17. CCNCc1cncc(-c2ccc3[nH]nc(-c4ncc(C(=O)N[C@H](Cc5ccccc5)C(N)=O)[nH]4)c3c2)c1C [Example 108, N-{[2-(5-{5-[(ethylamino)methyl]-4-methylpyridin-3-yl}-1H-indazol-3-yl)-1H-imidazol-5-yl]carbonyl}-D-phenylalaninamide]  57%
18. CCNCc1cncc(-c2ccc3[nH]nc(-c4ncc(C(=O)N[C@H](C(=O)NC)[C@@H](C)O)[nH]4)c3c2)c1C [Example 176, 2-(5-{5-[(ethylamino)methyl]-4-methylpyridin-3-yl}-1H-indazol-3-yl)-N-{(1S,2R)-2-hydroxy-1-[(methylamino)carbonyl]propyl}-1H-imidazole-5-carboxamide]  59%
19. CCNCc1cncc(-c2ccc3[nH]nc(-c4ncc(C(=O)N5CCSCC5)[nH]4)c3c2)c1C [Example 163, ethyl[(4-methyl-5-{3-[5-(thiomorpholin-4-ylcarbonyl)-1H-imidazol-2-yl]-1H-indazol-5-yl}pyridin-3-yl)methyl]amine]  60%
20. CCNCc1cncc(-c2ccc3[nH]nc(-c4ncc(C(=O)NCc5ccc(C(C)(C)O)cc5)[nH]4)c3c2)c1C [Example 235, 2-(5-{5-[(ethylamino)methyl]-4-methylpyridin-3-yl}-1H-indazol-3-yl)-N-[4-(1-hydroxy-1-methylethyl)benzyl]-1H-imidazole-5-carboxamide]  63%
21. CCNCc1cncc(-c2ccc3[nH]nc(-c4ncc(C(=O)NC)[nH]4)c3c2)c1C [Example 151, 2-(5-{5-[(ethylamino)methyl]-4-methylpyridin-3-yl}-1H-indazol-3-yl)-N-methyl-1H-imidazole-5-carboxamide]  67%
22. CCNCc1cncc(-c2ccc3[nH]nc(-c4ncc(C(=O)NC5CCC5)[nH]4)c3c2)c1C [Example 135, N-cyclobutyl-2-(5-{5-[(ethylamino)methyl]-4-methylpyridin-3-yl}-1H-indazol-3-yl)-1H-imidazole-5-carboxamide]  67%
23. CCNCc1cncc(-c2ccc3[nH]nc(-c4ncc(C(=O)N5CCN(c6c(C)cccc6C)CC5)[nH]4)c3c2)c1C [Example 133]  67%
24. CCNCc1cncc(-c2ccc3[nH]nc(-c4ncc(C(=O)N(CC)CCOC)[nH]4)c3c2)c1C [Example 175, N-ethyl-2-(5-{5-[(ethylamino)methyl]-4-methylpyridin-3-yl}-1H-indazol-3-yl)-N-(2-methoxyethyl)-1H-imidazole-5-carboxamide]  68%
25. CCNCc1cncc(-c2ccc3[nH]nc(-c4ncc(C(=O)NCCO)[nH]4)c3c2)c1C [Example 153, 2-(5-{5-[(ethylamino)methyl]-4-methylpyridin-3-yl}-1H-indazol-3-yl)-N-(2-hydroxyethyl)-1H-imidazole-5-carboxamide]  70%
26. CCNCc1cncc(-c2ccc3[nH]nc(-c4ncc(C(=O)NCCC#N)[nH]4)c3c2)c1C [Example 154, N-(2-cyanoethyl)-2-(5-{5-[(ethylamino)methyl]-4-methylpyridin-3-yl}-1H-indazxol-3-yl)-1H-imidazole-5-carboxamide]  71%
27. CCNCc1cncc(-c2ccc3[nH]nc(-c4ncc(C(=O)NCCSc5ccc(F)cc5)[nH]4)c3c2)c1C [Example 223]  71%
28. CCNCc1cncc(-c2ccc3[nH]nc(-c4ncc(C(=O)NCc5ccc(-c6csnn6)cc5)[nH]4)c3c2)c1C [Example 224]  72%
29. CCNCc1cncc(-c2ccc3[nH]nc(-c4ncc(C(=O)N[C@@H](CO)[C@@H](O)c5ccc(SC)cc5)[nH]4)c3c2)c1C [Example 111, 2-(5-{5-[(ethylamino)methyl]-4-methylpyridin-3-yl}-1H-indazol-3-yl)-N-{(1S,2S)-2-hydroxy-1-(hydroxymethyl)-2-[4-(methylthio)phenyl]ethyl}-1H-imidazole-5-carboxamide]  73%
30. CCNCc1cncc(-c2ccc3[nH]nc(-c4ncc(C(=O)NCc5ccccc5OC)[nH]4)c3c2)c1C [Example 106]  78%
31. CCNCc1cncc(-c2ccc3[nH]nc(-c4ncc(C(=O)N5CCCC5)[nH]4)c3c2)c1C [Example 138, ethyl[(4-methyl-5-{3-[5-(pyrrolidin-1-ylcarbonyl)-1H-imidazol-2-yl]-1H-indazol-5-yl}pyridin-3-yl)methyl]amine]  79%
